The source of these data is ChEMBL document CHEMBL3808294, “Design, synthesis and anti-HIV activity of novel quinoxaline derivatives” (Eur J Med Chem, 2016).

Values after ≈ are worked out from the molar mass of the structure shown. Bounds are passed on as bounds.

In data set [1] the test system is Human immunodeficiency virus 1. The data set can be described thus: Antiviral activity against HIV1 3B infected in human MT4 cells assessed as protection against virus-induced cytopathogenic effect after 5 days by MTT assay. To be noted: for IC50: Human immunodeficiency virus 1, 3B, MT4, 120 h. The data set is classed as functional, organism-based. For orientation: Protection from cytopathic effect is a common read-out in antiviral testing.

The next data set concerns Vero. The data set can be described thus: Cytotoxicity against African green monkey Vero cells assessed as cell growth inhibition after 24 hrs by MTT assay. To be noted: Chlorocebus sabaeus. The data set is classed as cell-based.
Data set [2] can be described thus: Cytotoxicity against human MT4 cells […] assessed as cell growth inhibition after 5 days by MTT assay. The data set is classed as cell-based. For orientation: Tetrazolium assays rely on reduction of a dye to a coloured formazan, in cell work by metabolically active cells.

As usually defined, the IC50 is the point on the concentration scale where inhibition reaches its midpoint. A word on the CC50: it is the concentration at which the toxic effect on the cells reaches its halfway point. On to `Cc1ccc(-c2nc3cc(F)c(Cl)cc3nc2-c2ccc(C)cc2)cc1`, for which, in data set [1], the “%max” value worked out at 4% and the IC50 is over 27.8 µg/mL. The IC50 in the data set on Vero was over 100 µg/mL. Further, the CC50 at 120 h in data set [2] is 27.8 µg/mL (≈ 76.6 µM).
For `Nc1nc2cc(F)c(Cl)cc2nc1N`, in that order: 9%, over 38.4 µg/mL, over 100 µg/mL and 38.5 µg/mL (≈ 181 µM).
The like results for `Fc1cc2nccnc2cc1Cl` were, in that order, 3%, over 91.1 µg/mL, 13.7 µg/mL (≈ 75 µM) and 91.2 µg/mL (≈ 499 µM).
As to `Cc1nc2cc(F)c(Cl)cc2nc1C`, in data set [1], the “%max” value was determined as 5% and the 50% inhibitory concentration (IC50) is over 49.7 µg/mL. The IC50 with Vero was over 100 µg/mL. Further, the CC50 at 120 h in data set [2] was 49.7 µg/mL (≈ 236 µM).
The like results for `Fc1cc2nc(-c3ccccc3)c(-c3ccccc3)nc2cc1Cl` were, in that order, 3%, over 11.8 µg/mL, over 100 µg/mL and 11.8 µg/mL (≈ 35.2 µM).
For `Fc1ccc(-c2nc3cc(F)c(Cl)cc3nc2-c2ccc(F)cc2)cc1`, in that order: 3%, over 15.4 µg/mL, over 100 µg/mL and 15.4 µg/mL (≈ 41.7 µM).
For `COc1ccc(-c2nc3cc(F)c(Cl)cc3nc2-c2ccc(OC)cc2)cc1`, in that order: 1%, over 30.5 µg/mL, over 100 µg/mL and 30.6 µg/mL (≈ 77.4 µM).
Consider `O=c1[nH]cnc2c1ncn2[C@H]1CC[C@@H](CO)O1` [DIDANOSINE], for which the IC50 in data set [1] is 17.9 µg/mL (≈ 76 µM).
Take `Nc1ccn([C@@H]2CS[C@H](CO)O2)c(=O)n1` [LAMIVUDINE]: in data set [1], the IC50 amounted to 0.58 µg/mL (≈ 2.53 µM). In addition, in data set [2], the CC50 at 120 h worked out at 20 µg/mL (≈ 87.2 µM).
In the case of `Cc1ccnc2c1NC(=O)c1cccnc1N2C1CC1` [NEVIRAPINE], the concentration for half-maximal inhibition (IC50) in data set [1] is 0.075 µg/mL (≈ 0.282 µM); in the data set on Vero, over 100 µg/mL.
For the compound `CC(=O)O[C@H]1C(=O)[C@@]2(C)[C@H]([C@H](OC(=O)c3ccccc3)[C@]3(O)C[C@H](OC(=O)[C@H](O)[C@@H](NC(=O)c4ccccc4)c4ccccc4)C(C)=C1C3(C)C)[C@]1(OC(C)=O)CO[C@@H]1C[C@@H]2O` [PACLITAXEL], the IC50 with Vero is over 100 µg/mL.
Take `Cc1cn([C@H]2C[C@H](N=[N+]=[N-])[C@@H](CO)O2)c(=O)[nH]c1=O` [ZIDOVUDINE]: the half-maximal inhibitory concentration (IC50) in data set [1] was found to be 0.002 µg/mL (≈ 0.00748 µM). In addition, in data set [2], the CC50 at 120 h is 2 µg/mL (≈ 7.48 µM).
